The source of these data is patent US20200115357A1, “LIVER X RECEPTORS (LXR) MODULATORS” (Phenex-FXR GmbH, priority 2017, published 2020).

pEC50: −log10 of the molar value.

The target in assay [1] is T1, LXRα full length (FL) (Homo sapiens, UniProt Q13133).
T1 construct: the full length (FL) proteins of LXRα (amino acids 1-447); NP005684; expressed in transfected cells; host or cells: HEK293
T1 sequence (Q13133 1-447): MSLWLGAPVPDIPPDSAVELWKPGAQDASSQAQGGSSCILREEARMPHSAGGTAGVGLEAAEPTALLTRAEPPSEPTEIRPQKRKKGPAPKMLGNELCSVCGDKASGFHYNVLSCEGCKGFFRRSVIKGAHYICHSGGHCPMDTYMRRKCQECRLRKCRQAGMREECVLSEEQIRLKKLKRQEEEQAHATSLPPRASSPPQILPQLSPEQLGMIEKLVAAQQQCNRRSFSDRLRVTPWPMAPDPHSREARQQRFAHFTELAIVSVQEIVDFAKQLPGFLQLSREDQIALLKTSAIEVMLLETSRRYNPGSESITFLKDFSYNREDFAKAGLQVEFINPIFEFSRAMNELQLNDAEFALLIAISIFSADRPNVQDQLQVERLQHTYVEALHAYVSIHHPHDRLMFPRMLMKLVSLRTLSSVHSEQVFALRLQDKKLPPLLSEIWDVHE
Description: LXR Gal4 reporter transient transfection assay (M2H), Gal4α FL. The assay is classed as cell-based. The settings on record: HEK293 cells; read-out: M2H Gal4α FL activity range (EC50). In outline: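 Mammalian two-hybrid in HEK293 cells transiently transfected with LXRα/β full-length or LBD fused to NFkB activation domain, plus GAL4-DBD fusions of SRC1 coactivator or NCoR corepressor domains and a GAL4-responsive firefly luciferase reporter. Compounds added 4 h post-transfection (vehicle ≤0.2% DMSO), 16 h incubation; firefly luciferase normalized to Renilla.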

Assay [2] deals with T2, GST-LXRβ ligand-binding domain (Homo sapiens, UniProt P55055, DUP175-175).
T2 construct: amino acids 156-461; NP009052; made in house; host or cells: E. coli
T2 sequence (P55055 with tags, fused parts or gaps DUP175-175): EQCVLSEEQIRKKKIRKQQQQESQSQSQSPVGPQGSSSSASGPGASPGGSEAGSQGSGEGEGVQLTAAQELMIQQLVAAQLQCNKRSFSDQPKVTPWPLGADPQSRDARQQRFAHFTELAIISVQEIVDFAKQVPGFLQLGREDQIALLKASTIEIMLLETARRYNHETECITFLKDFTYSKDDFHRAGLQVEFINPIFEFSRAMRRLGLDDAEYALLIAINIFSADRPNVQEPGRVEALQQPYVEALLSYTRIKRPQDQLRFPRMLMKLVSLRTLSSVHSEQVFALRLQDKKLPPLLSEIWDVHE
Nature of the assay: TR-FRETβ activity assay (LXRβ-LBD / NCoA3 coactivator peptide, prestimulated with 24(S)-25-epoxycholesterol). The assay is classed as biochemical. Details: key to behavior in FRET assay: ag=agonist; ia=inverse agonist. The settings on record: for pEC50: 1 μM 24(S)-25-epoxycholesterol as prestimulating agonist, read-out: FRETβ activity range (EC50); for behavior in FRET assay: agonist or inverse agonist. In outline: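 E. coli-expressed GST-LXRβ LBD (aa 156-461) at 76 nM with biotinylated NCoA3 coactivator peptide (400 nM), in 240 mM KCl, BSA and Triton-X-100. Anti-GST-Tb cryptate/streptavidin-XL665 TR-FRET after 1 h equilibration at 4 °C, excitation 340 nm, emission 615 and 665 nm. Run in triplicate.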

By pEC50 is commonly meant the negative decadic logarithm of the EC50, by convention in mol/L. On to `Cc1cc(C)c(S(=O)(=O)N(Cc2ccc(-c3cccc(CC(=O)O)c3)cc2)C(C)c2ccc(C(F)(F)F)o2)c(C)c1` (centres unmarked) [2/2], for which the pEC50 in assay [1] is greater than 7.00. In assay [2], the negative-log EC50 (pEC50) is 6.00 to 7.00 and the “behavior in FRET assay” value is “ia”.

Turning to `Cc1cc(C)c(S(=O)(=O)N(Cc2ccc(-c3cccc(S(=O)(=O)C(C)(C)C(=O)O)c3)cc2)Cc2ccc(C(F)(F)F)o2)c(C)c1` [5/2], the pEC50 in assay [1] is 6.00 to 7.00. Moreover, in assay [2], the pEC50 was 5.00 to 6.00 and the “behavior in FRET assay” value is “ia”.

Consider `Cc1cc(C)c(S(=O)(=O)N(Cc2ccc(-c3cccc(C(C)(C)C(=O)O)c3)cc2)Cc2ccc(C(F)(F)F)o2)c(C)c1` [7/5], for which the negative logarithm of the EC50 (pEC50) in assay [1] is greater than 7.00; in assay [2] it was 6.00 to 7.00. The “behavior in FRET assay” value in assay [2] is reported as “ia”.

For the compound `COc1cc(-c2cccc(C(C)(C)C(=O)O)c2)ccc1CN(Cc1ccc(C(F)(F)F)o1)S(=O)(=O)c1c(C)cc(C)cc1C` [10/4], the negative logarithm of the EC50 (pEC50) in assay [1] is greater than 7.00. In assay [2], the negative-log EC50 (pEC50) was greater than 7.00 and the “behavior in FRET assay” value is “ia”.

Consider `Cc1cc(C)c(S(=O)(=O)N(Cc2ccc(C(F)(F)F)o2)Cc2ccc(-c3cccc(C(C)(C)C(=O)O)c3)cc2Cl)c(C)c1` [10/5], for which, in assay [1], the pEC50 was greater than 7.00. For the same compound, in assay [2], the pEC50 is greater than 7.00 and the “behavior in FRET assay” value is reported as “ia”.

Take `Cc1ccc2ccccc2c1S(=O)(=O)N(Cc1ccc(-c2cccc(S(=O)(=O)CC(=O)O)c2)cc1)Cc1cccc(C(F)(F)F)c1` [11/19]: the pEC50 in assay [1] is 6.00 to 7.00. Further, in assay [2], the pEC50 is 5.00 to 6.00 and the “behavior in FRET assay” value is “ia”.

`Cc1cc(C)c(S(=O)(=O)N(Cc2ccc(-c3cccc(CC(=O)O)c3)cc2)Cc2ccc(C(F)(F)F)o2)c(C)c1` [Example 2, 2-(4′-(((2,4,6-Trimethyl-N-((5-(trifluoromethyl)furan-2-yl)methyl)phenyl)sulfonamido)methyl)-[1,1′-biphenyl]-3-yl)acetic acid]: in assay [1], the negative-log EC50 (pEC50) was greater than 7.00. Besides, in assay [2], the negative-log EC50 (pEC50) was 6.00 to 7.00 and the “behavior in FRET assay” value is on record as “ia”.

As to `Cc1cc(C)c(S(=O)(=O)N(Cc2ccc(-c3cccc(S(=O)(=O)CC(=O)O)c3)cc2)Cc2ccc(C(F)(F)F)o2)c(C)c1` [Example 5, 2-((4′-(((2,4,6-Trimethyl-N-((5-(trifluoromethyl)furan-2-yl)methyl)phenyl)sulfonamido)methyl)-[1,1′-biphenyl]-3-yl)sulfonyl)acetic acid], the pEC50 in assay [1] and in assay [2] was 5.00 to 6.00 in each case.

Turning to `Cc1ccc2ccccc2c1S(=O)(=O)N(Cc1ccc(-c2cccc(C(C)(C)C(=O)O)c2)cc1)Cc1ccc(C(F)(F)F)o1` [Example 24, 2-Methyl-2-(4′-(((2-methyl-N-((5-(trifluoromethyl)furan-2-yl)methyl)naphthalene)-1-sulfonamido)methyl)-[1,1′-biphenyl]-3-yl)propanoic acid], the negative logarithm of the EC50 (pEC50) in assay [1] is greater than 7.00. In assay [2], the pEC50 was greater than 7.00 and the “behavior in FRET assay” value was “ia”.

Take `Cc1cc(C)c(S(=O)(=O)N(Cc2ccc(-c3cc(F)c(CO)c(S(C)(=O)=O)c3)cc2)Cc2ccc(C(F)(F)F)o2)c(C)c1` [Example C3/2]: the pEC50 in assay [1] was greater than 7.00. In assay [2], the negative logarithm of the EC50 (pEC50) is greater than 7.00 and the “behavior in FRET assay” value is “ia”.
